This note sets out measurements from patent US20180049998A1, “Naphthoquinone Compounds and Methods for Preparing the Same” (priority 2016, published 2018).

As a reminder, the melting point is the temperature of the solid-liquid transition.

`CCOC(=O)C(C)(CCC1=C(C)C(=O)c2ccccc2C1=O)C(=O)OCC` registered a melting point of 96 °C.
